Consider nine compounds from PubChem BioAssay (NCI).

Holding throughout (test): NCI anticancer screen, dose series, 48 h
In assay [1] the test system is SK-OV-3 ovarian.
For assay [2], the system named is T-47D breast.
The subject of assay [3] is SF-539 CNS.
Assay [4] concerns HCT-15 colon.
Assay [5] concerns SF-268 CNS.
Assay [6] relates to MDA-MB-231 breast.
For assay [7], the system named is HT29 colon.
For assay [8], the system named is UACC-62 melanoma.
Assay [9] deals with OVCAR-8 ovarian.
Assay [10] concerns M14 melanoma.
Assay [11] concerns BT-549 breast.
Assay [12] concerns K-562 leukemia.
The test system of assay [13] is OVCAR-5 ovarian.
In assay [14] the test system is SNB-75 CNS.
Assay [15] deals with NCI-H522 lung.
Assay [16] concerns ACHN renal.
Assay [17] deals with SR leukemia.

Each structure is given as a SMILES string.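 In this assay, cells in 96-well plates receive the compound at five concentrations for 48 hours. Endpoints are linearly interpolated between the surrounding concentrations. At the TGI there is no net growth.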 Where a SMILES comes first, the peptide text is derived from it. [ ]: non-standard residue; d: D form. The star is where a group is joined. ξ: configuration not given here. ξF = NC(Cc1ccccc1)C(=O)O; Cbz = O=C(OCc1ccccc1)*; Aib = CC(C)(N)C(=O)O; NHNH2 = NN*

On to `O=C1C[C@H](c2ccccc2)O[C@@H](c2ccccc2)C1`, for which the TGI in assay [1], in assay [2], in [3], in [4], in [5] and in [6] was greater than 100 µM each time. Besides, the TGI in assay [7] was greater than 100 µM; in [8], greater than 100 µM; in assay [9], greater than 100 µM; in assay [10] it was greater than 100 µM; in assay [11], greater than 100 µM; in assay [12] it was 72.3 µM. Further, the TGI in assay [13] and in assay [14] was greater than 100 µM each time.

Consider `COC(=O)C(NC(=O)C(CC(=O)OC(C)(C)C)NC(=O)OC(C)(C)C)C(O)c1ccccc1` (centres undefined), for which the TGI in assay [15] is greater than 100 µM; in assay [1] it was 61.9 µM; in [2], greater than 100 µM; in assay [3], greater than 100 µM; in assay [4], greater than 100 µM; in [5], greater than 100 µM. Further, the TGI in assay [6] is greater than 100 µM; in [7] it was greater than 100 µM; in assay [8], 70.8 µM; in assay [9], greater than 100 µM; in [10], greater than 100 µM; in assay [16], greater than 100 µM. Besides, the TGI in assay [11], in assay [12], in [13] and in [14] was greater than 100 µM throughout.

For `O=C(CC(=O)N1N=C(N2CCCCC2)CC1c1ccccc1)Nc1ccccc1` (centres undefined), the TGI in assay [15], in assay [2], in assay [3], in assay [4], in assay [5] and in assay [17] was greater than 100 µM each time. Also, the TGI in assay [6], in assay [7], in assay [8], in [9], in assay [10] and in [16] was greater than 100 µM each time. Besides, the TGI in assay [11], in assay [13] and in assay [14] was greater than 100 µM each time.

Turning to `NC1=CN(CCCO)C2=N/C(=C\c3ccccc3)C(=O)N12`, the TGI in assay [15], in [1], in assay [2], in assay [3], in assay [4] and in assay [5] was greater than 100 µM throughout. The TGI in assay [6], in assay [7], in assay [8], in assay [9], in assay [10] and in [16] was greater than 100 µM each time. For the same compound, the TGI in assay [11], in [12], in assay [13] and in assay [14] was greater than 100 µM each time.

As to `COC(=O)C1CCC(=O)N1CN(C(C)=O)c1ccccc1Cl` (centres undefined), the TGI in [15], in assay [1], in [2], in assay [3], in assay [4] and in [5] was greater than 100 µM in each case. Further, the TGI in assay [17], in assay [6], in [7], in assay [8], in assay [9] and in [10] was greater than 100 µM in each case. Also, the TGI in assay [16], in assay [13] and in [14] was greater than 100 µM each time.

As to `CC(C)(NC(=O)OCc1ccccc1)C(=O)NC(Cc1ccccc1)C(=O)NN` (centres undefined) (Cbz-[Aib]-[ξF]-NHNH2), the TGI in [15], in assay [1], in assay [2], in assay [3], in [4] and in [5] was greater than 100 µM in each case. In addition, the TGI in assay [6], in [7], in assay [8], in assay [9], in assay [10] and in assay [16] was greater than 100 µM each time. For the same compound, the TGI in assay [11], in assay [12], in assay [13] and in assay [14] was greater than 100 µM throughout.

For `C[C@@H](c1ccccc1)n1c(N)c(-c2ccccn2)c2ccc([N+](=O)[O-])cc2c1=O`, the TGI in assay [15], in [2], in assay [4], in [5], in [17] and in [6] was greater than 100 µM throughout. In addition, the TGI in [7] was greater than 100 µM; in assay [8], greater than 100 µM; in assay [9], greater than 100 µM; in assay [16] it was greater than 100 µM; in assay [11], greater than 100 µM; in [14], 63 µM.

For `CC1(C)O[C@@H]([C@H](O)CO)[C@H](O)[C@@H](C2SCCCS2)O1`, the TGI in [1], in assay [2], in assay [3], in assay [4], in [5] and in [17] was greater than 100 µM each time. The TGI in [6], in assay [7], in [8], in [9], in assay [10] and in [16] was greater than 100 µM each time. The TGI in assay [11], in assay [13] and in [14] was greater than 100 µM each time.

Consider `c1ccc([P+](CCSCCSCC[P+](c2ccccc2)(c2ccccc2)c2ccccc2)(c2ccccc2)c2ccccc2)cc1`, for which the TGI in assay [1], in [2], in assay [3], in assay [4], in assay [5] and in assay [6] was greater than 100 µM in each case. The TGI in assay [7], in assay [8], in assay [9], in [10], in assay [16] and in [11] was greater than 100 µM each time. Also, the TGI in assay [12], in assay [13] and in assay [14] was greater than 100 µM each time.
